The text below walks through data of PubChem BioAssay (NCI).

Each structure is given as a SMILES string. Where “and” joins values, the source holds several entries; their conditions need not be identical. Equal entries are not always repeated.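 Protocol summary: plate cells (96-well), add compound at 5 concentrations, incubate 48 h, interpolate endpoints linearly. Abbreviation: GI50, concentration required for 50% inhibition of growth. TGI: total growth inhibition.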 A value given as a limit tells only on which side of the number the result lay.

Some test systems named below: ACHN renal; DU-145 prostate; HOP-92 NSCLC; M14 melanoma; MOLT-4 leukemia; NCI/ADR-RES ovarian; SF-295 CNS; SN12C renal; UACC-62 melanoma; UO-31 renal.
Common to all, as to assay: NCI-60 cell line screen, 48 h

As for `COc1ccc(OCC(O)CN2CCN(c3ccc(Cl)cc3)CC2)cc1` (stereo unspecified), the GI50 is 65.9 µM in the test with ACHN renal; above 100 µM with DU-145 prostate; 3.99 µM in the test on HOP-92 NSCLC; above 100 µM with M14 melanoma; above 100 µM with MOLT-4 leukemia; above 100 µM in the test with NCI/ADR-RES ovarian. In addition, the GI50 in the test with SF-295 CNS, in the test on SN12C renal and in the test on UACC-62 melanoma was above 100 µM each time. Also, the TGI with ACHN renal, in the test with DU-145 prostate, in the test with HOP-92 NSCLC, with M14 melanoma, with MOLT-4 leukemia and in the test on NCI/ADR-RES ovarian was above 100 µM in each case. Moreover, the TGI with SF-295 CNS, in the test on SN12C renal and in the test on UACC-62 melanoma was above 100 µM in each case.

For the compound `Cc1ccc(S(=O)(=O)N2CCC(C(=O)O)(c3ccccc3)CC2)cc1`, the TGI in the test with ACHN renal, in the test with DU-145 prostate, with HOP-92 NSCLC, in the test on M14 melanoma, in the test with MOLT-4 leukemia and with NCI/ADR-RES ovarian was above 100 µM in each case. For the same compound, the TGI in the test with SF-295 CNS, in the test on SN12C renal, in the test with UACC-62 melanoma and with UO-31 renal was above 100 µM each time.

As to `N/C(=N\C(N)=N\c1nc2ccccc2s1)c1cnccn1`, the GI50 with ACHN renal was 2.51 µM; with DU-145 prostate, 4.34 µM; with HOP-92 NSCLC it was 3.05 µM; in the test on M14 melanoma, 3.21 µM; with MOLT-4 leukemia, 3.48 µM; in the test on NCI/ADR-RES ovarian, 4.28 µM. Besides, the GI50 in the test with SF-295 CNS was 3.19 µM; in the test with SN12C renal it was 4.18 µM; in the test on UACC-62 melanoma, 1.74 µM; with UO-31 renal it was 2.05 µM. For the same compound, the TGI in the test with ACHN renal was 6.6 µM; in the test with DU-145 prostate it was above 100 µM; with HOP-92 NSCLC, 16.1 µM; in the test on M14 melanoma it was above 100 µM; in the test with MOLT-4 leukemia, above 100 µM; in the test with NCI/ADR-RES ovarian, above 100 µM. The TGI in the test with SF-295 CNS is 22.6 µM; in the test on SN12C renal, above 100 µM; in the test with UACC-62 melanoma, 3.52 µM; with UO-31 renal, 4.87 µM.

Take `C#CC#CC#CC#CC#CC#CC#CC#CC[C@@H]1OC[C@@H](COC(=O)O[C@@H](C(=O)O[C@H]2C[C@@]3(O)[C@@H](OC(=O)c4ccccc4)[C@@H]4[C@]5(OC(C)=O)CO[C@@H]5C[C@H](O)[C@@]4(C)C(=O)[C@H](OC(C)=O)C(=C2C)C3(C)C)[C@@H](NC(=O)c2ccccc2)c2ccccc2)O1`: the GI50 in the test with ACHN renal was 2.02 µM; in the test with DU-145 prostate, 0.502 µM; in the test with M14 melanoma, 0.165 µM; with MOLT-4 leukemia, 0.362 µM; with NCI/ADR-RES ovarian it was above 33.3 µM; in the test on SF-295 CNS it was 0.579 µM. Also, the figures for the GI50 in the test with SN12C renal, in the test on UACC-62 melanoma and in the test with UO-31 renal were 1.03 µM, 0.815 µM and 3.39 µM, respectively. The TGI in the test on ACHN renal was above 33.3 µM; with DU-145 prostate, above 33.3 µM; in the test on HOP-92 NSCLC it was above 33.3 µM; with M14 melanoma, 1.38 µM; in the test with MOLT-4 leukemia, above 33.3 µM; in the test on NCI/ADR-RES ovarian, above 33.3 µM. Also, the TGI in the test with SF-295 CNS is 2.41 µM; with SN12C renal, above 33.3 µM; with UACC-62 melanoma, above 33.3 µM; with UO-31 renal, above 33.3 µM.

Turning to `Nc1nc(=S)c2[nH]cnc2[nH]1`, the GI50 in the test on ACHN renal is 0.89 µM and 4.03 µM; with DU-145 prostate, 0.477 µM and 0.538 µM; with M14 melanoma, 0.413 µM and 0.677 µM; with MOLT-4 leukemia, 0.368 µM and 0.488 µM; in the test on NCI/ADR-RES ovarian it was 0.37 µM and 0.421 µM and 0.96 µM; in the test with SF-295 CNS, 0.209 µM and 1.24 µM. In addition, the GI50 was 0.295 µM and 0.376 µM and 1.26 µM with UACC-62 melanoma; 0.43 µM and 0.823 µM and 0.488 µM with UO-31 renal. The TGI with ACHN renal was 41.8 µM and 104 µM; in the test on DU-145 prostate, > 32.1 µM and 144 µM and 28.7 µM; in the test on HOP-92 NSCLC it was 4.44 µM and 26.8 µM and 32.4 µM; in the test on SN12C renal, > 100 µM and 171 µM and > 250 µM.

For the compound `COC(=O)c1ccc2[nH]c(O)c(C(=Nc3ccc(N(C)C(=O)CN4CCN(C)CC4)cc3)c3ccccc3)c2c1`, the GI50 was 1.13 µM with ACHN renal; 1.27 µM with DU-145 prostate; 9.78 µM in the test with HOP-92 NSCLC; 0.729 µM in the test on M14 melanoma; 0.389 µM in the test with MOLT-4 leukemia; 9.36 µM in the test on NCI/ADR-RES ovarian. The GI50 is 6.34 µM with SF-295 CNS, 0.267 µM with SN12C renal, 4.02 µM with UACC-62 melanoma and 1.24 µM in the test with UO-31 renal. The TGI with ACHN renal is 4.12 µM; in the test with DU-145 prostate it was 8.98 µM; in the test with HOP-92 NSCLC it was 39.7 µM; in the test with M14 melanoma, 2.42 µM; with MOLT-4 leukemia, 4.56 µM; with NCI/ADR-RES ovarian, 36.4 µM. Further, the TGI amounted to 21 µM with SF-295 CNS, 11.6 µM in the test on SN12C renal, 13.8 µM with UACC-62 melanoma and 3.86 µM in the test on UO-31 renal.

For the compound `Cn1ccnc1C(=O)/C=C/c1ccc(C(=O)Nc2c(F)c(F)c(F)c(F)c2F)cc1`, the GI50 with ACHN renal is 1.65 µM; with DU-145 prostate it was 1.64 µM; in the test on HOP-92 NSCLC, 2.11 µM; in the test on M14 melanoma, 1.77 µM; in the test on MOLT-4 leukemia it was 1.91 µM; with NCI/ADR-RES ovarian, 3.09 µM. The GI50 was 1.85 µM in the test on SF-295 CNS, 1.77 µM in the test with SN12C renal, 2.08 µM in the test with UACC-62 melanoma and 1.47 µM in the test with UO-31 renal. Besides, the TGI in the test with ACHN renal came to 3.01 µM; in the test with DU-145 prostate, 3.11 µM; in the test on HOP-92 NSCLC, 7.33 µM; in the test on M14 melanoma it was 3.7 µM; in the test with MOLT-4 leukemia it was 4.81 µM; with NCI/ADR-RES ovarian, 12.9 µM. Besides, the TGI was 3.64 µM in the test on SF-295 CNS, 3.69 µM with SN12C renal, 5.17 µM in the test with UACC-62 melanoma and 2.79 µM with UO-31 renal.

For `O=C(OC[C@@H]1CO1)c1cccc2c(=O)c3ccccc3[nH]c12`, the GI50 in the test on ACHN renal was 0.107 µM; in the test with DU-145 prostate, 0.335 µM; with HOP-92 NSCLC, 0.444 µM; with M14 melanoma, 0.344 µM; in the test with MOLT-4 leukemia, 0.0531 µM; in the test on NCI/ADR-RES ovarian, 0.253 µM. Moreover, the GI50 in the test with SF-295 CNS was 0.432 µM; in the test with SN12C renal, 0.196 µM; with UACC-62 melanoma it was 0.229 µM. Also, the TGI amounted to 0.305 µM in the test on ACHN renal; 1.29 µM with DU-145 prostate; 5.02 µM in the test with HOP-92 NSCLC; 1.65 µM in the test on M14 melanoma; 2.08 µM with NCI/ADR-RES ovarian; 2.5 µM with SF-295 CNS. Besides, the TGI came out at 1.41 µM with SN12C renal and 0.56 µM in the test with UACC-62 melanoma.

As for `C=C1CC/C=C(\C)CC[C@H](C(=C)C)[C@@H](O)/C=C(/CO)CCC1O` (stereo partly specified), the GI50 with ACHN renal was above 100 µM; with DU-145 prostate, 93.2 µM; in the test with M14 melanoma it was 71.7 µM; in the test with MOLT-4 leukemia, 24 µM; in the test with NCI/ADR-RES ovarian it was above 100 µM; in the test with SF-295 CNS, 71.9 µM. The GI50 in the test on SN12C renal is above 100 µM; in the test on UACC-62 melanoma it was 57.3 µM; with UO-31 renal, 62.2 µM. The TGI in the test with ACHN renal was above 100 µM; in the test with DU-145 prostate it was above 100 µM; with M14 melanoma, above 100 µM; in the test with MOLT-4 leukemia it was 53.6 µM; in the test on NCI/ADR-RES ovarian, above 100 µM; in the test on SF-295 CNS, above 100 µM. Also, the TGI with SN12C renal, in the test with UACC-62 melanoma and in the test with UO-31 renal was above 100 µM each time.

Regarding `COc1ccc(-c2cc(-c3ccccc3)nc(NCCNc3ccnc4cc(Cl)ccc34)n2)cc1`, the GI50 was 1.7 µM in the test with ACHN renal; 1.77 µM in the test on DU-145 prostate; 1.17 µM in the test with HOP-92 NSCLC; 1.71 µM with NCI/ADR-RES ovarian; 1.8 µM in the test with SF-295 CNS; 1.61 µM with SN12C renal. Also, the results for the GI50 in the test with UACC-62 melanoma and with UO-31 renal were 1.84 µM and 1.42 µM, respectively. Further, the TGI with ACHN renal was 3.16 µM; in the test on DU-145 prostate, 3.28 µM; with HOP-92 NSCLC it was 2.57 µM; in the test on NCI/ADR-RES ovarian it was 3.79 µM; in the test with SF-295 CNS it was 3.49 µM; in the test with SN12C renal, 3.3 µM. Moreover, the TGI was 3.52 µM in the test with UACC-62 melanoma and 2.93 µM in the test with UO-31 renal.

Consider `O=C(c1ccccc1)C(Br)C(Br)c1ccccc1` (stereo unspecified), for which the GI50 was 1.86 µM with ACHN renal; 3.08 µM in the test with DU-145 prostate; 2.53 µM with HOP-92 NSCLC; 2.01 µM in the test on M14 melanoma; 2.92 µM in the test with NCI/ADR-RES ovarian; 11.9 µM with SF-295 CNS. Also, the GI50 was 10.4 µM with SN12C renal, 11.8 µM in the test on UACC-62 melanoma and 1.85 µM in the test with UO-31 renal. Moreover, the TGI in the test with ACHN renal stood at 3.38 µM; in the test on DU-145 prostate, 9.63 µM; in the test with HOP-92 NSCLC, 6 µM; with M14 melanoma, 4.12 µM; in the test on NCI/ADR-RES ovarian it was 9.55 µM; in the test with SF-295 CNS it was 27.7 µM. In addition, the TGI in the test on SN12C renal came to 22.6 µM; in the test on UACC-62 melanoma it was 24.2 µM; in the test with UO-31 renal it was 3.87 µM.

For `O=c1[nH]c2ccc([N+](=O)[O-])c(Cl)c2c2ccccc12`, the TGI with ACHN renal was 18.9 µM; in the test on DU-145 prostate, 11.7 µM; with M14 melanoma, above 100 µM; with MOLT-4 leukemia, 31.8 µM; in the test on NCI/ADR-RES ovarian, above 100 µM; in the test on SF-295 CNS, 9.18 µM. Moreover, the TGI in the test with SN12C renal came out at 14.4 µM; in the test on UACC-62 melanoma, 15.5 µM; in the test on UO-31 renal, 21.2 µM.

For `O=C(Nc1ccc(C(F)(F)F)cc1[N+](=O)[O-])c1cccnc1`, the TGI was above 100 µM in the test on ACHN renal; above 100 µM with DU-145 prostate; above 100 µM in the test with M14 melanoma; above 100 µM in the test with MOLT-4 leukemia; above 100 µM in the test on NCI/ADR-RES ovarian; 23.9 µM in the test on SF-295 CNS. Besides, the TGI was above 100 µM with SN12C renal, 90.8 µM in the test on UACC-62 melanoma and above 100 µM with UO-31 renal.
